Source: ChEMBL document CHEMBL4507279, “Data for DCP probe BI-9627” (2021)

Experiments:
[1] = target: Serine/threonine-protein kinase 38 (Homo sapiens) (UniProt Q15208); settings: Compound concentration 1000.0 nM
[2] = target: Casein kinase II subunit alpha' (Homo sapiens) (UniProt P19784); settings: Compound concentration 1000.0 nM
[3] = target: Serine/threonine-protein kinase MARK1 (Homo sapiens) (UniProt Q9P0L2); settings: Compound concentration 1000.0 nM
[4] = system: Epidermal growth factor receptor (Homo sapiens), P00533 [L858R]; settings: Compound concentration 1000.0 nM
[5] = target: Mitogen-activated protein kinase 9 (Homo sapiens) (UniProt P45984); settings: Compound concentration 1000.0 nM
[6] = target: Dual specificity protein kinase CLK4 (Homo sapiens) (UniProt Q9HAZ1); settings: Compound concentration 1000.0 nM
[7] = target: Tyrosine-protein kinase ITK/TSK (Homo sapiens) (UniProt Q08881); settings: Compound concentration 1000.0 nM
[8] = system: Phosphatidylinositol 4,5-bisphosphate 3-kinase catalytic subunit alpha isoform (Homo sapiens), P42336 [E542K]; settings: Compound concentration 1000.0 nM
[9] = target: Serine/threonine-protein kinase 35 (Homo sapiens) (UniProt Q8TDR2); settings: Compound concentration 1000.0 nM
[10] = system: Epidermal growth factor receptor (Homo sapiens), P00533 [UNDEFINED MUTATION]; settings: Compound concentration 1000.0 nM
[11] = target: Muscle, skeletal receptor tyrosine-protein kinase (Homo sapiens) (UniProt O15146); settings: Compound concentration 1000.0 nM
[12] = target: T1, Alpha-2A adrenergic receptor (Homo sapiens) (UniProt P08913); settings: Compound concentration 10.0 uM
T1 sequence (whole entry): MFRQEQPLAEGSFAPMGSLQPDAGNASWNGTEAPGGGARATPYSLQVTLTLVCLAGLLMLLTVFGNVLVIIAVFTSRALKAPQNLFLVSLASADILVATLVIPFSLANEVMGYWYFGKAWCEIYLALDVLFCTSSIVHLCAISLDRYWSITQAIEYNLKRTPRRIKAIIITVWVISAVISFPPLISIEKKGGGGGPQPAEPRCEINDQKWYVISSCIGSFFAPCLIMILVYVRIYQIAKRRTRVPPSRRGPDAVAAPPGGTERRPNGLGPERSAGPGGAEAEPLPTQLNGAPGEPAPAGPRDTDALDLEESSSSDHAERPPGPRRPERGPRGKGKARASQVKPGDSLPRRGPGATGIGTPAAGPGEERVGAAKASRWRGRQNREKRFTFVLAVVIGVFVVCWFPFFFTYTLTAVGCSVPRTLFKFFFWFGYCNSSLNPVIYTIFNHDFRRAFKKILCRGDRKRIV

[13] = target: Serine/threonine-protein kinase DCLK3 (Homo sapiens) (UniProt Q9C098); settings: Compound concentration 1000.0 nM
[14] = target: Hormonally up-regulated neu tumor-associated kinase (Homo sapiens) (UniProt P57058); settings: Compound concentration 1000.0 nM
[15] = target: Mitogen-activated protein kinase kinase kinase 3 (Homo sapiens) (UniProt Q99759); settings: Compound concentration 1000.0 nM
[16] = target: Serine/threonine-protein kinase N2 (Homo sapiens) (UniProt Q16513); settings: Compound concentration 1000.0 nM
[17] = target: Bone morphogenetic protein receptor type-1B (Homo sapiens) (UniProt O00238); settings: Compound concentration 1000.0 nM
[18] = target: Activin receptor type-1B (Homo sapiens) (UniProt P36896); settings: Compound concentration 1000.0 nM
[19] = target: Serine/threonine-protein kinase 10 (Homo sapiens) (UniProt O94804); settings: Compound concentration 1000.0 nM
[20] = target: Sodium-dependent dopamine transporter (Homo sapiens, UniProt Q01959); assay: GPCRScan assay: inhibition of DAT; parameters: radioligand conc. used [nm] 3.6 – 16.0, parental cells stable HEK
[21] = target: Serine/threonine-protein kinase SIK2 (Homo sapiens) (UniProt Q9H0K1); settings: Compound concentration 1000.0 nM
[22] = target: Testis-specific serine/threonine-protein kinase 1 (Homo sapiens) (UniProt Q9BXA7); settings: Compound concentration 1000.0 nM
[23] = target: Serine/threonine-protein kinase B-raf (Homo sapiens) (UniProt P15056); settings: Compound concentration 1000.0 nM
[24] = system: ALK tyrosine kinase receptor (Homo sapiens), Q9UM73 [C1156Y]; settings: Compound concentration 1000.0 nM
[25] = target: Myosin-IIIa (Homo sapiens) (UniProt Q8NEV4); settings: Compound concentration 1000.0 nM
[26] = target: STE20/SPS1-related proline-alanine-rich protein kinase (Homo sapiens) (UniProt Q9UEW8); settings: Compound concentration 1000.0 nM
[27] = target: Serine/threonine-protein kinase haspin (Homo sapiens) (UniProt Q8TF76); settings: Compound concentration 1000.0 nM
[28] = target: Tyrosine-protein kinase receptor TYRO3 (Homo sapiens) (UniProt Q06418); settings: Compound concentration 1000.0 nM
[29] = target: Mitogen-activated protein kinase 12 (Homo sapiens) (UniProt P53778); settings: Compound concentration 1000.0 nM
[30] = target: Serine/threonine-protein kinase tousled-like 1 (Homo sapiens) (UniProt Q9UKI8); settings: Compound concentration 1000.0 nM
[31] = target: Dual specificity mitogen-activated protein kinase kinase 1 (Homo sapiens) (UniProt Q02750); settings: Compound concentration 1000.0 nM
[32] = target: Mitotic checkpoint serine/threonine-protein kinase BUB1 (Homo sapiens) (UniProt O43683); settings: Compound concentration 1000.0 nM
[33] = target: Activin receptor type-1-like (Homo sapiens) (UniProt P37023); settings: Compound concentration 1000.0 nM
[34] = target: Serine/threonine-protein kinase PLK4 (Homo sapiens) (UniProt O00444); settings: Compound concentration 1000.0 nM
[35] = target: Focal adhesion kinase 1 (Homo sapiens) (UniProt Q05397); settings: Compound concentration 1000.0 nM
[36] = target: Beta-3 adrenergic receptor (Homo sapiens) (UniProt P13945); settings: Compound concentration 10.0 uM
[37] = target: Receptor-interacting serine/threonine-protein kinase 1 (Homo sapiens) (UniProt Q13546); settings: Compound concentration 1000.0 nM
[38] = target: Serine/threonine-protein kinase PLK3 (Homo sapiens) (UniProt Q9H4B4); settings: Compound concentration 1000.0 nM

Sodium-dependent dopamine transporter, sequence (Q01959 whole entry): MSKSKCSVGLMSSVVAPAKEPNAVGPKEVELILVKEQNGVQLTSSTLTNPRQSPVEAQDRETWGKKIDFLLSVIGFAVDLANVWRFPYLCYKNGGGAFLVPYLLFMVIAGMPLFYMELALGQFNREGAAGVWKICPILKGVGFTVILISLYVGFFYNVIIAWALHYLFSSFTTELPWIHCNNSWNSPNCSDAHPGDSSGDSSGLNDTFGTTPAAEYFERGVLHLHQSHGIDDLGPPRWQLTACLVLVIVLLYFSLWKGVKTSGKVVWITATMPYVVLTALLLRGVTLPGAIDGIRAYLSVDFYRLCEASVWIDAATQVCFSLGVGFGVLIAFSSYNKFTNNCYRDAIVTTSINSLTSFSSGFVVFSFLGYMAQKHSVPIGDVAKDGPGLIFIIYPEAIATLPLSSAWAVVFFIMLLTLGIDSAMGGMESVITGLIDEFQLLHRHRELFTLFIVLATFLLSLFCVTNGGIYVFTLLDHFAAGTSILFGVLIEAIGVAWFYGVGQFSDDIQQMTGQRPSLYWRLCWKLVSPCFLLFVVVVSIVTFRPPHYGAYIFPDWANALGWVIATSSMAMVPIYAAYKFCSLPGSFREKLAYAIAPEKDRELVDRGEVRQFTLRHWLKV
Activin receptor type-1B (Homo sapiens), sequence (P36896 whole entry): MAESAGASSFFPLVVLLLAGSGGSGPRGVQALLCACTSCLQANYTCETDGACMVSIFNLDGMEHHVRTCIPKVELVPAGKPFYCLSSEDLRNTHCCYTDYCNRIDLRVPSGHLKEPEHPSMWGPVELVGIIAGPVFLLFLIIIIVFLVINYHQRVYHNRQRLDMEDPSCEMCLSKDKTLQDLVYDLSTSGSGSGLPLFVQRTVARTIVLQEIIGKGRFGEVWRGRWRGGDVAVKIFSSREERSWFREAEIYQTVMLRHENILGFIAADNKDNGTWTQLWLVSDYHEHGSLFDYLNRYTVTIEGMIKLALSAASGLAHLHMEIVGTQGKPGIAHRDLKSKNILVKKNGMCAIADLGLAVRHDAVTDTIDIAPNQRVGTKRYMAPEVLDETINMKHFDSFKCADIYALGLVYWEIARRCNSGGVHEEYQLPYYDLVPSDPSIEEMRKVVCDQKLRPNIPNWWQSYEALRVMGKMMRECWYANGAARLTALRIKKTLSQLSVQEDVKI
Receptor-interacting serine/threonine-protein kinase 1 (Homo sapiens), sequence (Q13546 whole entry): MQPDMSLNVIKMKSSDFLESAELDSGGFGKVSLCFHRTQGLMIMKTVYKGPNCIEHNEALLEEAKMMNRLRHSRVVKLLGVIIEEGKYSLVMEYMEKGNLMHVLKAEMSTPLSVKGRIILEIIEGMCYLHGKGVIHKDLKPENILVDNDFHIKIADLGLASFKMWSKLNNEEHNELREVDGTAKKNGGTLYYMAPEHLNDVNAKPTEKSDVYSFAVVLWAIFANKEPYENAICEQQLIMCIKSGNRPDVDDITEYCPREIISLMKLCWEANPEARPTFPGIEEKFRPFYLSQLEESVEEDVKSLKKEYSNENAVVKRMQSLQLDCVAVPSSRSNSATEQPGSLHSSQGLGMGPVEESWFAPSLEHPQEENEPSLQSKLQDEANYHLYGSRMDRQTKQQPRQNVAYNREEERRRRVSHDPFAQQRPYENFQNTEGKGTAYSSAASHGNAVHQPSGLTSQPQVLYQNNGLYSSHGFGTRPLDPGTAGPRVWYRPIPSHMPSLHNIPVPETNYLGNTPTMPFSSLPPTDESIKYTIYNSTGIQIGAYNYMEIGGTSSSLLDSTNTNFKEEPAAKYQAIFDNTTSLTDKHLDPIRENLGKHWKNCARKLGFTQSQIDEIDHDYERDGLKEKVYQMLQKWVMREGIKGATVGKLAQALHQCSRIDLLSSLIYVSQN
Serine/threonine-protein kinase DCLK3 (Homo sapiens), sequence (Q9C098 whole entry): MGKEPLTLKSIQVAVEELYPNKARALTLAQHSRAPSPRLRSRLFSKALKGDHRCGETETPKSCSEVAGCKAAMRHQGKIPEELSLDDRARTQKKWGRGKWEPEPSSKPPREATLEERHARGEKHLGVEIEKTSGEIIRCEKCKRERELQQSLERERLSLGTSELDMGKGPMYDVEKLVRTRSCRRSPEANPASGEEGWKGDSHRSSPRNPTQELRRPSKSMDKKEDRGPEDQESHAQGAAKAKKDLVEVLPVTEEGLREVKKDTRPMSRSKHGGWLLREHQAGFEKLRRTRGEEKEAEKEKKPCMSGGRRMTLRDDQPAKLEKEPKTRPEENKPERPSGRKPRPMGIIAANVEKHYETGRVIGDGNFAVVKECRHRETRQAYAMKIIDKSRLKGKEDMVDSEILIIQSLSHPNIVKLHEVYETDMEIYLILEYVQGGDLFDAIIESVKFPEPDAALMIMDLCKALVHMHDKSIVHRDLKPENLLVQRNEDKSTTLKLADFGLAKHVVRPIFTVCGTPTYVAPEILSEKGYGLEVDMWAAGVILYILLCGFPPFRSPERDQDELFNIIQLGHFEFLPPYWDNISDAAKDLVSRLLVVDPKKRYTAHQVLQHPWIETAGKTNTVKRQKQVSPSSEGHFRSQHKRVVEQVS
Mitotic checkpoint serine/threonine-protein kinase BUB1 (Homo sapiens), sequence (O43683 whole entry, looked up): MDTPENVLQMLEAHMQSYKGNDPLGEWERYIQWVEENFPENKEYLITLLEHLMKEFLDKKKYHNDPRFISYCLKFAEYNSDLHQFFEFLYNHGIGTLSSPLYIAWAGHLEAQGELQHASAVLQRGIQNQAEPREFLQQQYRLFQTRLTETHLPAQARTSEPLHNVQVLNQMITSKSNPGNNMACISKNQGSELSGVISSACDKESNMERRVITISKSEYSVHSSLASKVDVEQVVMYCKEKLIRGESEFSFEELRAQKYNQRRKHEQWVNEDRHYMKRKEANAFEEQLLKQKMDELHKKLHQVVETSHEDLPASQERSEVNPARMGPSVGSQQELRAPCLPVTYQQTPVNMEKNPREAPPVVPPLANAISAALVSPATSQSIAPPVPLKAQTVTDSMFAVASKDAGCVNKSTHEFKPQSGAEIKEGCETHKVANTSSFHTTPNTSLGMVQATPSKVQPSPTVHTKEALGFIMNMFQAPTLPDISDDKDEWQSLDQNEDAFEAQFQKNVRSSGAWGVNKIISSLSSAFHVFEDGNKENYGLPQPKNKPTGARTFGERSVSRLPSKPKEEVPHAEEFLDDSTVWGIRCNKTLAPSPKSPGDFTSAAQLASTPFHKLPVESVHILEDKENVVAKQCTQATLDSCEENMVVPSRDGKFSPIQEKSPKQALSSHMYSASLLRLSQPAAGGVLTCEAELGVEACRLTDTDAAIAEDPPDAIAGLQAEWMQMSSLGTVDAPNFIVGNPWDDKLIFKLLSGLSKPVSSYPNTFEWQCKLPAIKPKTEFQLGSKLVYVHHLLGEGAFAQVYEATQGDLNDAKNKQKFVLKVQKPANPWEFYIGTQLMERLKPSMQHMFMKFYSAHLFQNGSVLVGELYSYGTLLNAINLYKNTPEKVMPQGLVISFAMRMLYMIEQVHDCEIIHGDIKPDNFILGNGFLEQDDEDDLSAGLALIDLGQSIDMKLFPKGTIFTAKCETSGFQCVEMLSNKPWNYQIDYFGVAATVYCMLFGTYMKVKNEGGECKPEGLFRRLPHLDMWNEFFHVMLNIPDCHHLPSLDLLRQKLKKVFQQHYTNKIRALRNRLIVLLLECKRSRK
Tyrosine-protein kinase receptor TYRO3 (Homo sapiens), sequence (Q06418 whole entry): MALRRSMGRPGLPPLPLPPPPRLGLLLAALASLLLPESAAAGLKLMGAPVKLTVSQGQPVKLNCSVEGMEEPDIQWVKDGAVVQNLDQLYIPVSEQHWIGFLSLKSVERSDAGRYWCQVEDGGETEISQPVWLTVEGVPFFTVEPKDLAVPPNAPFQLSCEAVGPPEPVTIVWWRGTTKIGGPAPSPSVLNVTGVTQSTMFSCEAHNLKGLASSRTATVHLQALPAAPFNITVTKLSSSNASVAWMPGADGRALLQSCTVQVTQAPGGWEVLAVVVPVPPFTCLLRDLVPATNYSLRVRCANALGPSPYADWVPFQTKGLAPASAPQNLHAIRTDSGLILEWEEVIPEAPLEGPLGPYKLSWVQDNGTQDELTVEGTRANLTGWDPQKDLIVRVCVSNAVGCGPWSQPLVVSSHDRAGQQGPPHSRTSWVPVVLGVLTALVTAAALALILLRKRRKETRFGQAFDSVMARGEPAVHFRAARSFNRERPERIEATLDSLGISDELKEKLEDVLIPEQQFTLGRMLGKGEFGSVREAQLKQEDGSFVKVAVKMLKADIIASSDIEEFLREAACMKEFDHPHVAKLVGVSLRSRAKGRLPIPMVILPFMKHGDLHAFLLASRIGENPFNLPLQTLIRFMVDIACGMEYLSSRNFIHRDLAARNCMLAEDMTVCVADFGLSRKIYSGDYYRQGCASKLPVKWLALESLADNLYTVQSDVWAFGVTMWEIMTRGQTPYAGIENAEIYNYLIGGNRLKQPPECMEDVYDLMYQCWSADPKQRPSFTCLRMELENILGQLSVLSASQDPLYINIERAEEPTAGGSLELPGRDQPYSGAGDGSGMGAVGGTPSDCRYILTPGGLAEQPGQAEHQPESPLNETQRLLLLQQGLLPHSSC
Testis-specific serine/threonine-protein kinase 1 (Homo sapiens), sequence (Q9BXA7 whole entry): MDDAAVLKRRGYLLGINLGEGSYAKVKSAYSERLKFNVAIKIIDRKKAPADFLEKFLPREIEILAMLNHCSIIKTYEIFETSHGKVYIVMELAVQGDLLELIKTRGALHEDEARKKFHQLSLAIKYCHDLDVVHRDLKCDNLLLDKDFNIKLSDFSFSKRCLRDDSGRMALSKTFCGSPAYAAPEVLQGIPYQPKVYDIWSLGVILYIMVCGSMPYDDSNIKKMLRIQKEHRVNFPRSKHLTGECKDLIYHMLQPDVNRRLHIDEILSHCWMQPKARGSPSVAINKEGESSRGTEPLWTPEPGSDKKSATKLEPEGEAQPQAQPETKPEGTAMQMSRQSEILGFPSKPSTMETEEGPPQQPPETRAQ

CC(=O)N1CCC(c2ccc(C(=O)NC3=NCCN3)cc2C(F)(F)F)CC1 [BI 0054]
residual activity [1]: 85%
residual activity [2]: 100%
residual activity [3]: 100%
residual activity [4]: 100%
residual activity [5]: 92%
residual activity [6]: 100%
residual activity [7]: 91%
residual activity [8]: 100%
residual activity [9]: 100%
residual activity [10]: 100%
residual activity [11]: 90%
inhibition [12]: 4.92%
residual activity [13]: 100%
residual activity [14]: 100%
residual activity [15]: 100%
residual activity [16]: 100%
residual activity [17]: 89%
residual activity [18]: 100%
residual activity [19]: 100%
Ki ([20]; read-out: Ki): 825 nM
Ki ([20]; read-out: pKi (converted)): 794 nM
residual activity [21]: 100%
residual activity [22]: 100%
residual activity [23]: 100%
residual activity [24]: 100%
residual activity [25]: 100%
residual activity [26]: 100%
residual activity [27]: 78%
residual activity [28]: 89%
residual activity [29]: 55%
residual activity [30]: 100%
residual activity [31]: 100%
residual activity [32]: 100%
residual activity [33]: 100%
residual activity [34]: 100%
residual activity [35]: 17%
inhibition [36]: 8.52%
residual activity [37]: 100%
residual activity [38]: 78%

CC(=O)N1CCC(c2ccc(C(=O)NC(=N)N)cc2C(F)(F)F)CC1 [BI 9627]
residual activity [1]: 96%
residual activity [2]: 100%
residual activity [3]: 100%
residual activity [4]: 100%
residual activity [5]: 95%
residual activity [6]: 100%
residual activity [7]: 100%
residual activity [8]: 82%
residual activity [9]: 100%
residual activity [10]: 93%
residual activity [11]: 100%
inhibition [12]: -0.34%
residual activity [13]: 98%
residual activity [14]: 100%
residual activity [15]: 90%
residual activity [16]: 100%
residual activity [17]: 100%
residual activity [18]: 93%
residual activity [19]: 94%
Ki ([20]; read-out: Ki): 1520 nM
Ki ([20]; read-out: pKi (converted)): 1580 nM
residual activity [21]: 100%
residual activity [22]: 100%
residual activity [23]: 100%
residual activity [24]: 100%
residual activity [25]: 100%
residual activity [26]: 90%
residual activity [27]: 100%
residual activity [28]: 100%
residual activity [29]: 77%
residual activity [30]: 100%
residual activity [31]: 97%
residual activity [32]: 85%
residual activity [33]: 100%
residual activity [34]: 100%
residual activity [35]: 100%
inhibition [36]: 5.47%
residual activity [37]: 100%
residual activity [38]: 82%
